Results as given in PMC5710999, “Statistical investigation of the full concentration range of fasted and fed simulated intestinal fluid on the equilibrium solubility of oral drugs” (European Journal of Pharmaceutical Sciences, 2018).
“Also recorded” adds a separate entry of the source.

Legend:
[1] = set-up: method as in Khadra et al., 2015; details: ref Khadra et al., 2015, cited from earlier work; for Effect of buffer on equilibrium solubility in the fasted study: fasted DoE; for Statistical significance of DoE factor Bile Salt on equilibrium solubility, Fstd / Statistical significance of DoE factor Buffer on equilibrium solubility, Fstd / Statistical significance of DoE factor Oleate on equilibrium solubility, Fstd / Statistical significance of DoE factor pH on equilibrium solubility, Fstd / Statistical significance of DoE factor Lecithin on equilibrium solubility, Fstd / Statistical significance of DoE factor Salt on equilibrium solubility, Fstd: fasted media design of experiment
[2] = set-up: method as in Zhou et al., 2017; details: fed media design of experiment; ref Zhou et al., 2017; cited from earlier work
[3] = Equilibrium solubility in full range (fasted to fed) design of experiment simulated intestinal media; format: physicochemical; details: for Comparison of combined fasted and fed solubility data with the full range DoE: Mann-Whitney test on equilibrium solubility distributions; for Variability of equilibrium solubility values: Fig. 1 and 2; for Comparison of published fasted DoE solubility distribution with full range DoE / Comparison between all solubility data sets (fasted, fed, combined, full range) / Comparison of published fed DoE solubility distribution with full range DoE: Mann-Whitney test; for Comparison of published fasted DoE solubility distribution with full range DoE: fasted state; for Effect of pH on equilibrium solubility: pH 5 to 7; for Comparison between all solubility data sets (fasted, fed, combined, full range): Fig. 2b; for Comparison of published fed DoE solubility distribution with full range DoE: fed state
Excerpt: A quarter of the full factorial design of experiment with 7 factors (either a component concentration or a system parameter such as pH) and 2 levels (upper and lower limits) was constructed and analysed using Minitab®17.2.1. Minitab generated 32 different experiments by various combinations of the upper and lower limits of the 7 factors based on Table 1 (no centre point and no replicate). When designing and analysing the DoE assumptions were made. […] Only main effects and 2-way interactions are considered in the analysis and 3-way interactions or more were not considered. […] The single factors and factor interactions are confounded with 3 to 6-way interactions which were not included. There are three confounded 2-way factor interactions, sodium oleate and salt with buffer and monoglyceride, sodium oleate and buffer with salt and monoglyceride, sodium oleate and monoglyceride with salt and buffer. For these interactions if the result is significant then any conclusions must be drawn with caution as it might be the result of the four factors together or only one of the 2 way interactions. […] The main effect can be positive (+) or negative (−), but when it is involved in an interaction, the conclusion will be considered with the interactions (±).
The Kolmogorov normality test was used in Minitab® to assess the distribution of each data set, based on the result that all data sets have a non-normal distribution the Mann-Whitney test was applied to evaluate differences between two data sets.
A stream of nitrogen gas was used to remove the chloroform ensuring a dry film was produced. Water was added to reform the dried film, stirred to obtain a homogenous mixture, transferred to a volumetric flask (5 ml) and made to volume with water.
Salt and buffer stock solution: Sodium chloride (4.448 g) and monosodium phosphate (NaH2PO4) (2.395 g) were weighed into a 25 ml volumetric flask, dissolved and made up to the volume with water.
Sodium oleate: Sodium oleate (1.978 g) was weighed into a 25 ml volumetric flask, dissolved in water under gentle heat and made to final volume. Solution was then kept at 50 °C to aid solubilisation.
The concentration of each stock mixture has been designed to be 15 times greater than the upper limit concentration value required for the DoE, with the exception of sodium oleate where only a 5 times concentration was possible. The stock mixtures were combined to provide the 32 measurement solutions according to the DoE model.
This protocol has been previously validated to ensure equilibrium solubility is achieved after 24 h with no methodological interference ([Khadra et al., 2015], [Zhou et al., 2017]). A weight of powdered drug (10 mg) was added to a centrifuge tube (15 ml Corning®). The required volume of each stock solution (section above) and water was added to provide a final volume of 4 ml in every tube. pH was then adjusted to 5 or 7 using 0.1 M HCL or 0.1 M KOH. Tubes were shaken for 1 h at room temperature and then pH adjusted again as before. Tubes are then placed in an orbital shaker and incubated for 24 h at 37 °C and 240 rpm. Following incubation the tubes were checked for the presence of solid drug, then centrifuged (13,000 rpm, 5 min) and the supernatant (500 μl) was sampled to determine the solubilised drug concentration by HPLC.

[4] = cited from earlier work; for pKa: quoted without reference
[5] = quoted without reference; cited from earlier work
[6] = full range media design of experiment, p < 0.05
[7] = full range DoE, standardised effect

SMILES | Statistical significance of DoE factor Bile Salt on equilibrium solubility, Fstd [1] | Statistical significance of DoE factor Buffer on equilibrium solubility, Fstd [1] | Statistical significance of DoE factor Oleate on equilibrium solubility, Fstd [1] | Statistical significance of DoE factor pH on equilibrium solubility, Fstd [1] | Statistical significance of DoE factor Bile Salt on equilibrium solubility, Fed [2] | Statistical significance of DoE factor Oleate on equilibrium solubility, Fed [2] | Statistical significance of DoE factor pH on equilibrium solubility, Fed [2] | Comparison of combined fasted and fed solubility data with the full range DoE [3] | Variability of equilibrium solubility values ([3]; full range DoE) | Statistical significance of DoE factor Bile Salt on equilibrium solubility, Full [3, 6] | Statistical significance of DoE factor Oleate on equilibrium solubility, Full [3, 6] | Statistical significance of DoE factor pH on equilibrium solubility, Full [3, 6] | Statistical significance of DoE factor Lecithin on equilibrium solubility, Fstd [1] | Effect of sodium oleate on equilibrium solubility [3, 7] | Effect of pH on equilibrium solubility [3, 7] | Effect of bile salt on equilibrium solubility [3, 7] | log P [5] | also measured
COc1ccc2c(c1)c(CC(=O)O)c(C)n2C(=O)c1ccc(Cl)cc1 [Indomethacin, indomethacin] | S | S | S | S | S | S | S | no significant difference | larger variability | S | S | S |  |  |  |  |  | Effect of buffer on equilibrium solubility in the fasted study [1]: negative effect
COc1ccccc1OCCNCC(O)COc1cccc2[nH]c3ccccc3c12 (stereo not shown) [Carvedilol, carvedilol] | S |  | S | S | S | S | S | no significant difference |  |  | S | S | S | positively affected | significant effect |  |  | Statistical significance of DoE factor Buffer on equilibrium solubility, Fed [2]: S; Statistical significance of DoE factor Monoglyceride on equilibrium solubility, Fed [2]: S; Comparison of published fasted DoE solubility distribution with full range DoE [3]: statistically equivalent
CN1CC(=O)N2[C@H](c3ccc4c(c3)OCO4)c3[nH]c4ccccc4c3C[C@@H]2C1=O [Tadalafil, tadalafil] | S | S | S | S | S | S |  | significantly different | large variability | S | S |  | S | positively affected | not | positively affects |  | Statistical significance of DoE factor Salt on equilibrium solubility, Fstd [1]: S; pKa [4]: 10; Comparison between all solubility data sets (fasted, fed, combined, full range) [3]: statistically significant difference between all data sets
CCCCCCCC/C=C\CCCCCCCC(=O)O [oleate, Sodium oleate] |  |  |  |  |  |  |  |  |  |  |  |  |  |  |  |  |  | pKa of acidic media factors ([4]; ref Holm et al., 2013): approximately 5
COc1cc(C(=O)NS(=O)(=O)c2ccccc2C)ccc1Cc1cn(C)c2ccc(NC(=O)OC3CCCC3)cc12 [Zafirlukast, zafirlukast] | S |  | S | S | S |  | S | no significant difference |  | S |  | S | S |  | significant effect | positively affects |  | pKa [4]: 4.3; Comparison of published fed DoE solubility distribution with full range DoE [3]: statistically equivalent
C[C@@H](O[C@H]1OCCN(Cc2n[nH]c(=O)[nH]2)[C@H]1c1ccc(F)cc1)c1cc(C(F)(F)F)cc(C(F)(F)F)c1 [Aprepitant, aprepitant] | S |  | S | S | S | S | S | significantly different | more consistency |  | S | S |  | positively affected | significant effect |  | 4.5 | Statistical significance of DoE factor Buffer on equilibrium solubility, Fed [2]: S; Statistical significance of DoE factor Lecithin on equilibrium solubility, Fed [2]: S; Statistical significance of DoE factor Salt on equilibrium solubility, Fed [2]: S; Comparison between all solubility data sets (fasted, fed, combined, full range) [3]: statistically significant difference between all data sets
CCOC(=O)C1=C(C)NC(C)=C(C(=O)OC)C1c1cccc(Cl)c1Cl (stereo not shown) [Felodipine, felodipine] | S |  | S | S | S | S | S | significantly different | large variability | S | S | S | S | positive effect | affected | positive effect | 3.8 | Statistical significance of DoE factor Lecithin on equilibrium solubility, Fed [2]: S; Comparison of published fed DoE solubility distribution with full range DoE [3]: statistically equivalent; Effect of lecithin on equilibrium solubility [3, 7]: affected; Statistical significance of DoE factor Lecithin on equilibrium solubility, Full [3, 6]: S
CC(C)(Sc1cc(C(C)(C)C)c(O)c(C(C)(C)C)c1)Sc1cc(C(C)(C)C)c(O)c(C(C)(C)C)c1 [Probucol, probucol] |  |  |  |  |  |  |  | no significant difference |  |  |  |  |  |  |  |  | 10.9 | Influence of any DoE factor on equilibrium solubility ([3]; full range DoE): not significantly influenced by any of the factors
O=C1NC(=O)C(c2ccccc2)(c2ccccc2)N1 [Phenytoin, phenytoin] | S | S | S | S | S | S | S | no significant difference | more consistency; also recorded: very consistent |  | S | S | S |  |  |  |  | Effect of buffer on equilibrium solubility in the fasted study [1]: positive effect; Statistical significance of DoE factor Salt on equilibrium solubility, Fstd [1]: S; Statistical significance of DoE factor Monoglyceride on equilibrium solubility, Fed [2]: S; Comparison of published fasted DoE solubility distribution with full range DoE [3]: statistically equivalent
